The values below come from patent publication US10654834B2 (Venenum Biodesign, LLC, priority 2016, dated 2020).

The target of one test is T1, mouse TGR5 receptor (Mus musculus, UniProt Q80SS6).
T1 construct: host or cells: HEK293-EBNA (293 c18, ATCC CRL10852)
T1 sequence (Q80SS6 1-329): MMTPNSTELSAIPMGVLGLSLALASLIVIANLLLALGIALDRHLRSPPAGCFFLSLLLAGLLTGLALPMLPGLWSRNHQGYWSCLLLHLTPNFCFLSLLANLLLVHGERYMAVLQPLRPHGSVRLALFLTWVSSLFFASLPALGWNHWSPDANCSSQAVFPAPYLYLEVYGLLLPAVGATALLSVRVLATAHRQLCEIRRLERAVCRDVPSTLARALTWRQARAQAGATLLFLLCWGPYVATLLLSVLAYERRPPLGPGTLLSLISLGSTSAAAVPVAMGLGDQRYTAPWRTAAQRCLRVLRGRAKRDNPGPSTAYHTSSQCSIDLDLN
The test is described as follows: Mouse TGR5 HTRF cAMP production assay (HEK293-EBNA cells, Cisbio cAMP HiRange kit). The test is classed as cell-based. Particulars: HEK293-EBNA cells overexpressing mouse TGR5, HTRF cAMP assay. Summed up: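 HEK293-EBNA cells stably expressing mouse TGR5 (episomal vector) were suspended in serum-free DMEM with 500 μM IBMX and exposed to 12-point half-log compound dilutions for 1 h at room temperature. cAMP was detected by HTRF (d2-cAMP/anti-cAMP cryptate, 1 h, room temperature), giving EC50 from duplicates.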
In general terms: In TR-FRET formats the signal depends on donor and acceptor labels being close together.

A further test concerns the target T2, human TGR5 receptor (Homo sapiens, UniProt Q8TDU6).
T2 construct: host or cells: CHO-K1 (hTGR5-CHO)
T2 sequence (Q8TDU6 1-330): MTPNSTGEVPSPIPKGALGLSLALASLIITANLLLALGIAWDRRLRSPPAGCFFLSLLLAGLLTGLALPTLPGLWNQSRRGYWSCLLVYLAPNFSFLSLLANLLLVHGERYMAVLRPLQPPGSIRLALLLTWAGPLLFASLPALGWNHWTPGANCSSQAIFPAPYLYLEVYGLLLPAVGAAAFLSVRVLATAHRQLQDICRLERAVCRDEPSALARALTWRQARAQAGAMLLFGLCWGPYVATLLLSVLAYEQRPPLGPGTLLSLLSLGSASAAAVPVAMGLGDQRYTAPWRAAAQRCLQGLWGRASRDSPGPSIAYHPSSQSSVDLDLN
The test is described as follows: Human TGR5 cAMP production assay (hTGR5-CHO cells, DiscoveRx cAMP XS+ kit). The note with it: luminescent cAMP assay, read-out: Human TGR5 Lum. cAMP Activity (EC50). The test is classed as cell-based. Summed up: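 CHO-K1 cells stably expressing hTGR5, in PBS with IBMX and cAMP antibody, treated with half-log compound dilutions for 1 h at room temperature. cAMP measured by enzyme-fragment complementation luminescence after overnight detection; EC50 values reported.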
For orientation: Changes in cAMP serve as a functional read-out for many G protein-coupled receptors.

pEC50: −log10 of the molar value.

For the molecule `N=C(N)NCCCC1CCN(c2cc(N3CCC[C@H]3C(=O)NCCc3ccc(C(F)(F)F)cc3)nc(C(F)(F)F)n2)CC1` [Compound 132, (S)-1-(6-(4-(3-guanidinopropyl)piperidin-1-yl)-2-(trifluoromethyl)pyrimidin-4-yl)-N-(4-(trifluoromethyl)phenethyl)-pyrrolidine-2-carboxamide], the pEC50 at mouse TGR5 receptor and at human TGR5 receptor was over 7.00 in each case.

Turning to `O=C(O)CCNC(=O)N1CCN(c2cc(N3CCC[C@@H](C(=O)NCCc4ccc(C(F)(F)F)cc4)C3)nc(C(F)(F)F)n2)CC1` [Compound 344, (R)-3-(4-(2-(trifluoromethyl)-6-(3-((4-(trifluoromethyl)phenethyl)carbamoyl)-piperidin-1-yl)pyrimidin-4-yl)piperazine-1-carboxamido)propanoic acid], the pEC50 at mouse TGR5 receptor was over 7.00; on human TGR5 receptor it was 6.00 to 7.00.

As for `N#Cc1ccc(CCNC(=O)[C@@H]2CCCN2c2cc(N3CCN(CCO)CC3)nc(C(F)(F)F)n2)cc1` [Compound 31], the pEC50 at mouse TGR5 receptor was over 7.00; at human TGR5 receptor, 6.00 to 7.00.

For the molecule `O=C(CCCC1CCN(c2cc(N3CCC[C@H]3C(=O)NCCc3ccc(-c4ccncc4)cc3)nc(C(F)(F)F)n2)CC1)NCS(=O)(=O)O` [Compound 353, (S)-(4-(1-(6-(2-((4-(pyridin-4-yl)phenethyl)carbamoyl)pyrrolidin-1-yl)-2-(trifluoromethyl)pyrimidin-4-yl)piperidin-4-yl)butanamido)methanesulfonic acid], the pEC50 on mouse TGR5 receptor and at human TGR5 receptor was over 7.00 throughout.

Take `N#Cc1ccc(CCNC(=O)[C@@H]2CCCN(c3cc(N4CCN(CC(=O)O)CC4)nc(C(F)(F)F)n3)C2)cc1` [Compound 315, (R)-2-(4-(6-(3-((4-cyanophenethyl)carbamoyl)piperidin-1-yl)-2-(trifluoromethyl)pyrimidin-4-yl)piperazin-1-yl)acetic acid]: the negative logarithm of the EC50 (pEC50) on mouse TGR5 receptor was over 7.00; on human TGR5 receptor, 4.52 to 6.00.

Turning to `O=C(O)CCNC(=O)NCCC1CCN(c2cc(N3CCC[C@H]3C(=O)NCCc3ccc(-c4ccccn4)cc3)nc(C(F)(F)F)n2)CC1` [Compound 378, (S)-3-(3-(2-(1-(6-(2-((4-(pyridin-2-yl)phenethyl)carbamoyl)pyrrolidin-1-yl)-2-(trifluoromethyl)pyrimidin-4-yl)piperidin-4-yl)ethyl)ureido)propanoic acid], the pEC50 on mouse TGR5 receptor and at human TGR5 receptor was 4.52 to 6.00 throughout.

As to `N#Cc1ccc(CCNC(=O)[C@@H]2CCCN(c3cc(N4CCN(CCn5ccnc5)CC4)nc(C(F)(F)F)n3)C2)cc1` [Compound 318, (R)-1-(6-(4-(2-(1H-imidazol-1-yl)ethyl)piperazin-1-y1)-2-(trifluoromethyl)pyrimidin-4-yl)-N-(4-cyanophenethyl)piperidine-3-carboxamide], the pEC50 on mouse TGR5 receptor is over 7.00; at human TGR5 receptor, 6.00 to 7.00.

With `O=C(NCCc1ccc(C(F)(F)F)cc1)[C@@H]1CCN1c1cc(N2CCC(CCCC3CCN(C(=O)CS(=O)(=O)O)CC3)CC2)nc(C(F)(F)F)n1` [Compound 280, (S)-2-oxo-2-(4-(3-(1-(2-(trifluoromethyl)-6-(2-((4-(trifluoromethyl)phenethyl)carbamoyl)azetidin-1-yl)pyrimidin-4-yl)piperidin-4-yl)propyl)piperidin-1-yl)ethanesulfonic acid], the values for the pEC50 at mouse TGR5 receptor and on human TGR5 receptor were over 7.00 and 6.00 to 7.00, respectively.

As for `N#Cc1ccc(CCNC(=O)[C@@H]2CCCN2c2cc(N3CCC(CCCO)CC3)nc(C(F)(F)F)n2)cc1` [Compound 23], the pEC50 at mouse TGR5 receptor and at human TGR5 receptor was over 7.00 throughout.

With `O=C(CCC1CCN(c2cc(N3CC[C@H]3C(=O)NCCc3ccc(C(F)(F)F)cc3)nc(C(F)(F)F)n2)CC1)NCCS(=O)(=O)O` [Compound 254, (S)-2-(3-(1-(2-(trifluoromethyl)-6-(2-((4-(trifluoromethyl)-phenethyl)carbamoyl)azetidin-1-yl)pyrimidin-4-yl)piperidin-4-yl)propanamido)ethanesulfonic acid], the results for the pEC50 on mouse TGR5 receptor and on human TGR5 receptor were over 7.00 and 6.00 to 7.00, respectively.

What is called pEC50 is the EC50 on a negative log10 scale, so that one unit is a factor of ten.
